Results as given in ChEMBL document CHEMBL3621195, “Analogues of the marine alkaloids oroidin, clathrodin, and hymenidin induce apoptosis in human HepG2 and THP-1 cancer cells” (Medchemcomm, 2015).

Legend:
THP-1 [1] = test: Induction of apoptosis in human THP1 cells at 50 uM incubated for 24 hrs by Annexin V-FITC and propidium iodide staining based microcapillary flow cytometry; assay type: functional
THP-1 [2] = test: Induction of cell cycle arrest in human THP1 cells assessed accumulation at subG1 phase at 25 uM incubated for 24 hrs by propidium iodide staining based microcapillary flow cytometry (reference value: 2 +/- 1%); assay type: functional
THP-1 [3] = test: Induction of apoptosis in human THP1 cells incubated for 24 hrs by Annexin V-FITC and propidium iodide staining based microcapillary flow cytometry; assay type: functional, cell-based; conditions: THP-1, 24 h
THP-1 [4] = test: Induction of cell cycle arrest in human THP1 cells assessed accumulation at subG1 phase at 25 uM incubated for 48 hrs by propidium iodide staining based microcapillary flow cytometry (reference value: 2 +/- 1%); assay type: functional
HepG2 [5] = test: Induction of apoptosis in human HepG2 cells at 50 uM incubated for 24 hrs by Annexin V-FITC and propidium iodide staining based microcapillary flow cytometry; assay type: functional
HepG2 [6] = test: Induction of apoptosis in human HepG2 cells incubated for 24 hrs by Annexin V-FITC and propidium iodide staining based microcapillary flow cytometry; assay type: functional, cell-based; conditions: HepG2, 24 h

CNc1nc(-c2cccc(NC(=O)c3cc4ccccc4[nH]3)c2)c[nH]1.Cl
Activity (THP-1 [1]): 87%
Activity (THP-1 [2]): 18%
EC50 (THP-1 [3]): 24 µM
Activity (THP-1 [4]): 49%
Activity (HepG2 [5]): 91%
EC50 (HepG2 [6]): 20 µM

Cl.Nc1nc(-c2cccc(NC(=O)c3cc4cc(Cl)ccc4[nH]3)c2)c[nH]1
Activity (THP-1 [1]): 87%
Activity (THP-1 [2]): 26%
EC50 (THP-1 [3]): 24 µM
Activity (THP-1 [4]): 40%
Activity (HepG2 [5]): 93%
EC50 (HepG2 [6]): 16 µM
